What was measured:
[1] = test system: Pseudomonas fluorescens (D); test: MBC (minimum bactericidal concentration) test in Wash NEXT reagent; type: cell-based
Gram positive rods (S) = test: as above; type: cell-based

## [N-]=[N+]=[N-] [Sodium Azide, sodium azide]
[1]; 10% preservative, 8 hour
  MBC test growth score: +
[1]; 10% preservative, 24 hour
  MBC test growth score: +
[1]; 10% preservative, 48 hour
  MBC test growth score: +
[1]; 10% preservative, 72 hour
  MBC test growth score: +
[1]; 20% preservative, 8 hour
  MBC test growth score: +
[1]; 20% preservative, 24 hour
  MBC test growth score: +
[1]; 20% preservative, 48 hour
  MBC test growth score: +
[1]; 20% preservative, 72 hour
  MBC test growth score: +
[1]; 30% preservative, 8 hour
  MBC test growth score: +
[1]; 30% preservative, 24 hour
  MBC test growth score: +
[1]; 30% preservative, 48 hour
  MBC test growth score: +
[1]; 30% preservative, 72 hour
  MBC test growth score: +
[1]; 40% preservative, 8 hour
  MBC test growth score: +
[1]; 40% preservative, 24 hour
  MBC test growth score: +
[1]; 40% preservative, 48 hour
  MBC test growth score: +
[1]; 40% preservative, 72 hour
  MBC test growth score: +
[1]; 50% preservative, 8 hour
  MBC test growth score: +
[1]; 50% preservative, 24 hour
  MBC test growth score: +
[1]; 50% preservative, 48 hour
  MBC test growth score: +
[1]; 50% preservative, 72 hour
  MBC test growth score: +
[1]; 60% preservative, 8 hour
  MBC test growth score: +
[1]; 60% preservative, 24 hour
  MBC test growth score: +
[1]; 60% preservative, 48 hour
  MBC test growth score: +
[1]; 60% preservative, 72 hour
  MBC test growth score: +
[1]; 70% preservative, 8 hour
  MBC test growth score: +
[1]; 70% preservative, 24 hour
  MBC test growth score: +
[1]; 70% preservative, 48 hour
  MBC test growth score: +
[1]; 70% preservative, 72 hour
  MBC test growth score: +
[1]; 80% preservative, 8 hour
  MBC test growth score: +
[1]; 80% preservative, 24 hour
  MBC test growth score: +
[1]; 80% preservative, 48 hour
  MBC test growth score: +
[1]; 80% preservative, 72 hour
  MBC test growth score: +
[1]; 90% preservative, 8 hour
  MBC test growth score: +
[1]; 90% preservative, 24 hour
  MBC test growth score: +
[1]; 90% preservative, 48 hour
  MBC test growth score: +
[1]; 90% preservative, 72 hour
  MBC test growth score: +
[1]; 100% preservative, 8 hour
  MBC test growth score: +
[1]; 100% preservative, 24 hour
  MBC test growth score: +
[1]; 100% preservative, 48 hour
  MBC test growth score: +
[1]; 100% preservative, 72 hour
  MBC test growth score: +
[1]; at 72 hours, listed as Na Azide
  total kill at % preservative (MBC): No kill @ 100%
Gram positive rods (S); 10% preservative, 8 hour
  MBC test growth score: +
Gram positive rods (S); 10% preservative, 24 hour
  MBC test growth score: +
Gram positive rods (S); 10% preservative, 48 hour
  MBC test growth score: +
Gram positive rods (S); 10% preservative, 72 hour
  MBC test growth score: +
Gram positive rods (S); 10% preservative, 7 day
  MBC test growth score: +
Gram positive rods (S); 10% preservative, 14 day
  MBC test growth score: +
Gram positive rods (S); 20% preservative, 8 hour
  MBC test growth score: +
Gram positive rods (S); 20% preservative, 24 hour
  MBC test growth score: +
Gram positive rods (S); 20% preservative, 48 hour
  MBC test growth score: +
Gram positive rods (S); 20% preservative, 72 hour
  MBC test growth score: +
Gram positive rods (S); 20% preservative, 7 day
  MBC test growth score: +
Gram positive rods (S); 20% preservative, 14 day
  MBC test growth score: +
Gram positive rods (S); 30% preservative, 8 hour
  MBC test growth score: +
Gram positive rods (S); 30% preservative, 24 hour
  MBC test growth score: +
Gram positive rods (S); 30% preservative, 48 hour
  MBC test growth score: +
Gram positive rods (S); 30% preservative, 72 hour
  MBC test growth score: +
Gram positive rods (S); 30% preservative, 7 day
  MBC test growth score: +
Gram positive rods (S); 30% preservative, 14 day
  MBC test growth score: +
Gram positive rods (S); 40% preservative, 8 hour
  MBC test growth score: +
Gram positive rods (S); 40% preservative, 24 hour
  MBC test growth score: +
Gram positive rods (S); 40% preservative, 48 hour
  MBC test growth score: +
Gram positive rods (S); 40% preservative, 72 hour
  MBC test growth score: +
Gram positive rods (S); 40% preservative, 7 day
  MBC test growth score: +
Gram positive rods (S); 40% preservative, 14 day
  MBC test growth score: +
Gram positive rods (S); 50% preservative, 8 hour
  MBC test growth score: +
Gram positive rods (S); 50% preservative, 24 hour
  MBC test growth score: +
Gram positive rods (S); 50% preservative, 48 hour
  MBC test growth score: +
Gram positive rods (S); 50% preservative, 72 hour
  MBC test growth score: +
Gram positive rods (S); 50% preservative, 7 day
  MBC test growth score: +
Gram positive rods (S); 50% preservative, 14 day
  MBC test growth score: +
Gram positive rods (S); 60% preservative, 8 hour
  MBC test growth score: +
Gram positive rods (S); 60% preservative, 24 hour
  MBC test growth score: +
Gram positive rods (S); 60% preservative, 48 hour
  MBC test growth score: +
Gram positive rods (S); 60% preservative, 72 hour
  MBC test growth score: +
Gram positive rods (S); 60% preservative, 7 day
  MBC test growth score: +
Gram positive rods (S); 60% preservative, 14 day
  MBC test growth score: +
Gram positive rods (S); 70% preservative, 8 hour
  MBC test growth score: +
Gram positive rods (S); 70% preservative, 24 hour
  MBC test growth score: +
Gram positive rods (S); 70% preservative, 48 hour
  MBC test growth score: +
Gram positive rods (S); 70% preservative, 72 hour
  MBC test growth score: +
Gram positive rods (S); 70% preservative, 7 day
  MBC test growth score: +
Gram positive rods (S); 70% preservative, 14 day
  MBC test growth score: +
Gram positive rods (S); 80% preservative, 8 hour
  MBC test growth score: +
Gram positive rods (S); 80% preservative, 24 hour
  MBC test growth score: +
Gram positive rods (S); 80% preservative, 48 hour
  MBC test growth score: +
Gram positive rods (S); 80% preservative, 72 hour
  MBC test growth score: +
Gram positive rods (S); 80% preservative, 7 day
  MBC test growth score: +
Gram positive rods (S); 80% preservative, 14 day
  MBC test growth score: +
Gram positive rods (S); 90% preservative, 8 hour
  MBC test growth score: +
Gram positive rods (S); 90% preservative, 24 hour
  MBC test growth score: +
Gram positive rods (S); 90% preservative, 48 hour
  MBC test growth score: +
Gram positive rods (S); 90% preservative, 72 hour
  MBC test growth score: +
Gram positive rods (S); 90% preservative, 7 day
  MBC test growth score: +
Gram positive rods (S); 90% preservative, 14 day
  MBC test growth score: +
Gram positive rods (S); 100% preservative, 8 hour
  MBC test growth score: +
Gram positive rods (S); 100% preservative, 24 hour
  MBC test growth score: +
Gram positive rods (S); 100% preservative, 48 hour
  MBC test growth score: +
Gram positive rods (S); 100% preservative, 72 hour
  MBC test growth score: +
Gram positive rods (S); 100% preservative, 7 day
  MBC test growth score: +
Gram positive rods (S); 100% preservative, 14 day
  MBC test growth score: +
Gram positive rods (S); at 14 days, listed as Na Azide
  total kill at % preservative (MBC): No kill @ 100%

From patent publication US20140094424A1, “MICROBICIDAL COMPOSITIONS AND METHODS OF PRODUCTION USE THEREOF” (priority 2011, published 2014)
